# Assay results published in US20060216253A1, “Whitening cosmetics containing morus alba extracts” (Time and Cross, Inc., priority 2005, published 2006).
# Legend:
# Mushroom Tyrosinase [1] = test: Inhibitory effects on mushroom tyrosinase (dopachrome, OD490, 15 min); assay type: biochemical; conditions: for IC50: 37° C., 15 min, L-tyrosine substrate
# Protocol: (§1) L-Tyrosine, the substrate for tyrosinase, was dissolved in 50 mM sodium phosphate buffer (pH6.8) to prepare a solution of 0.1 mg/mL L-tyrosine. […] 100 μL of the L-tyrosine solution was introduced into a test tube, and 100 μL of 50 mM sodium phosphate buffer (pH6.8) with or without test samples were added thereto, and then 10 μL of 200 U/mL tyrosinase were mixed and incubated at 37° C. for 15 min.
# The amount of dopachrome in the reaction mixture was determined spectrophotmetrically using absorbance measurement at 490 nm.
# [2] = test system: murine melanoma B16 cells; test: Melanin production in murine melanoma B-16 cells; assay type: cell-based; conditions: for Melanin production (%): B16 cells, 3 days; for inhibitory effects on melanin production (in words): any of the concentrations assayed
# Protocol: (§2) The melanoma cell line was grown in DMEM culture medium containing 4.5 g of glucose/l, 10% fetal bovine serum and 1% antibiotic agent and cultivated at 37° C. under a condition of 5% CO2. The cell suspension was inoculated in a 50 mL T-flask (3×10^5 cells/mL) and the cells were allowed to completely adhere to the plate for 24 hr. Then, test samples diluted in DMEM medium at concentrations of 1, 5, 10, 50, and 100 μg/mL were added to the cultivated cells, and the mixture was cultivated at 5% CO2 and 37° C. for 3 days. After cultivation, culture medium was thoroughly removed and the cells were isolated via trypsin treatment. The suspensions were then centrifuged for 5 min to collect cells. The obtained cells were treated with 5% trichloroacetic acid (TCA), stirred and centrifuged. The precipitated melanin was washed with phosphate buffered saline (PBS), and treated with 1 N NaOH to dissolve the melanin therein. Absorbance at 475 nm was measured. Melanin concentration was determined from a standard concentration curve of synthetic melanin (SIGMA Co., USA).
# [3] = test system: murine melanoma B16 cells; test: Cell viability (MTT assay) of murine melanoma B-16 cells; assay type: cell-based
# Protocol: as §2
# (§3) We used the MTT assay to determine the percentage of viable cells. After cultivation was completed, a solution of MTT was added to the cultivation solution and the mixture was incubated at 37° C. for 4 hr. After incubation, culture medium was thoroughly removed, and the residue was treated with DMSO (Dimethyl sulfoxide) and shaken for 20 min. The optical density at 580 nm was measured by an ELISA microplate reader.
# melan-a cell line [4] = test: Melanin production in melan-a cell line; assay type: cell-based; conditions: melan-a cells; for Melanin production (%): 72 hr; for inhibitory effects on melanin production (in words): any of the concentrations assayed
# Protocol: (§4) Melan-a cells were grown in 10 mL of RPMI 1640 medium supplemented with antibiotics, 10% fetal bovine serum (FBS), and 20 nM TPA. The cell suspension was inoculated in a 24-well plate (10^5 cells/mL) and the cells were allowed to completely adhere to the plate for 24 hr. Test samples dissolved in DMSO were added to the plate and incubated at 37° C. for 72 hr in a CO2 incubator. The culture medium was then thoroughly removed and the cells were isolated through trypsin treatment. The suspensions were then centrifuged for 5 min to collect cells, which were then treated with 5% trichloroacetic acid (TCA), stirred and centrifuged to precipitate the melanin. Melanin was washed with PBS and dissolved in 1 N NaOH. Absorbance at 475 nm was measured. Melanin concentration was determined from a standard concentration curve of synthetic melanin (SIGMA Co., USA).
# melan-a cell line [5] = test: Cell viability (MTT assay) of melan-a cell line; assay type: cell-based
# Protocol: as §4, §3
# Mushroom Tyrosinase [6] = test: Extended duration of mushroom tyrosinase inhibition (up to 24 hours); assay type: biochemical; conditions: for reaction time until loss of tyrosinase inhibitory activity: 37° C., FIG. 3
# Protocol: as §1
# Using the experimental conditions described in the Mushroom Tyrosinase experiment described above, the reaction mixtures, containing various concentrations from 1 μg/mL to 50 μg/mL of the agents assayed, were incubated at 37° C. and spectrophotometric measurements of dopachrome were made at time intervals of up to 24 hours.
# melanocytes = test: Microscopic observation of pigmentation of confluent melanocyte monolayer; assay type: cell-based; conditions: cell line not specified
# Description: The pigmentation of a confluent monolayer of melanocytes is visible microscopically, as the cells contain black melanin pigment.
SMILES,IC50 (Mushroom Tyrosinase [1]) [nM],Melanin production (%) ([2]; 1 μg/mL),Melanin production (%) ([2]; 5 μg/mL),Melanin production (%) ([2]; 10 μg/mL),Melanin production (%) ([2]; 50 μg/mL),Melanin production (%) ([2]; 100 μg/mL),inhibitory effects on melanin production (in words) ([2]; melanoma B-16 cells),"Cell viability (%) ([3]; B16 cells, 1 μg/mL, MTT)","Cell viability (%) ([3]; B16 cells, 5 μg/mL, MTT)","Cell viability (%) ([3]; B16 cells, 10 μg/mL, MTT)","Cell viability (%) ([3]; B16 cells, 50 μg/mL, MTT)","Cell viability (%) ([3]; B16 cells, 100 μg/mL, MTT)",Melanin production (%) (melan-a cell line [4]; 1 μg/mL),Melanin production (%) (melan-a cell line [4]; 5 μg/mL),Melanin production (%) (melan-a cell line [4]; 10 μg/mL),Melanin production (%) (melan-a cell line [4]; 50 μg/mL),Melanin production (%) (melan-a cell line [4]; 100 μg/mL),inhibitory effects on melanin production (in words) (melan-a cell line [4]),"Cell viability (%) (melan-a cell line [5]; melan-a cells, 1 μg/mL, MTT)","Cell viability (%) (melan-a cell line [5]; melan-a cells, 5 μg/mL, MTT)",other results
"OC[C@H]1O[C@@H](Oc2ccc(O)cc2)[C@H](O)[C@@H](O)[C@@H]1O [Arbutin, arbutin]",145000,99.4 ± 2.1,100.8 ± 4.5,103.2 ± 1.9,98.9 ± 8.2,98.2 ± 6.9,did not show inhibitory effects on melanin production,102.4 ± 5.3,100.1 ± 7.8,98.5 ± 6.3,96.6 ± 8.0,93.2 ± 5.6,104.2 ± 3.2,103.7 ± 4.6,102.0 ± 5.7,100.4 ± 4.0,99.5 ± 7.2,did not show inhibitory effects on melanin production,104.2 ± 7.2,105.2 ± 8.3,"Cell viability (%) (melan-a cell line [5]; melan-a cells, 10 μg/mL, MTT): 100.7 ± 5.0%; Cell viability (%) (melan-a cell line [5]; melan-a cells, 50 μg/mL, MTT): 98.3 ± 7.7%; Cell viability (%) (melan-a cell line [5]; melan-a cells, 100 μg/mL, MTT): 93.8 ± 5.6%; reaction time until loss of tyrosinase inhibitory activity (Mushroom Tyrosinase [6]; 2 μg/mL): loses activity in about one hour; reaction time until loss of tyrosinase inhibitory activity (Mushroom Tyrosinase [6]; 5 μg/mL): loses activity in about one hour"
"O=c1cc(CO)occ1O [Kojic acid, kojic acid]",–,102.4 ± 4.7,98.2 ± 7.1,96.5 ± 3.7,94.1 ± 5.2,91.6 ± 7.1,did not show inhibitory effects on melanin production,95.2 ± 8.3,97.2 ± 7.6,96.2 ± 5.0,86.7 ± 3.4,81.7 ± 8.5,103.4 ± 5.4,100.5 ± 8.2,99.4 ± 7.1,95.1 ± 6.7,92.4 ± 8.0,did not show inhibitory effects on melanin production,95.3 ± 8.0,96.8 ± 4.7,"Cell viability (%) (melan-a cell line [5]; melan-a cells, 10 μg/mL, MTT): 95.1 ± 9.0%; Cell viability (%) (melan-a cell line [5]; melan-a cells, 50 μg/mL, MTT): 84.2 ± 8.2%; Cell viability (%) (melan-a cell line [5]; melan-a cells, 100 μg/mL, MTT): 80.5 ± 8.3%; reaction time until loss of tyrosinase inhibitory activity (Mushroom Tyrosinase [6]; 2 μg/mL): loses activity within two hours; reaction time until loss of tyrosinase inhibitory activity (Mushroom Tyrosinase [6]; 5 μg/mL): within five hours"
"Oc1cc(O)cc(/C=C/c2ccc(O)cc2O)c1 [Oxyresveratrol, oxyresveratrol]",2400,94.3 ± 7.7,90.8 ± 4.4,87.5 ± 6.9,57.3 ± 8.1,19.5 ± 8.2,–,–,–,–,–,–,95.1 ± 3.1,90.2 ± 6.4,88.5 ± 7.4,60.3 ± 9.1,20.6 ± 4.9,–,–,–,"inhibitory effect on mushroom tyrosinase (in words) (Mushroom Tyrosinase [1]; FIGS. 1 and 2): the most potent inhibitors of mushroom tyrosinase; reduction in melanin production ([2]; melanoma B-16 cells, 100 μg/mL): 80.5%; Cell viability (%) ([3]; mouse, 3 days, 1 μg/mL): 99.5 ± 5.4%; Cell viability (%) ([3]; mouse, 3 days, 5 μg/mL): 97.4 ± 5.9%; Cell viability (%) ([3]; mouse, 3 days, 10 μg/mL): 95.3 ± 7.6%; Cell viability (%) ([3]; mouse, 3 days, 50 μg/mL): 66.2 ± 8.3%; Cell viability (%) ([3]; mouse, 3 days, 100 μg/mL): 23.1 ± 4.8%; reduction in melanin production (melan-a cell line [4]; 100 μg/mL): 79.4%; Cell viability (%) (melan-a cell line [5]; mouse, 72 h, 1 μg/mL): 99.0 ± 5.8%; Cell viability (%) (melan-a cell line [5]; mouse, 72 h, 5 μg/mL): 96.9 ± 7.9%; Cell viability (%) (melan-a cell line [5]; mouse, 72 h, 10 μg/mL): 94.7 ± 4.2%; Cell viability (%) (melan-a cell line [5]; mouse, 72 h, 50 μg/mL): 68.5 ± 5.5%; Cell viability (%) (melan-a cell line [5]; mouse, 72 h, 100 μg/mL): 27.3 ± 7.8%; inhibition of tyrosinase activity after 24 hours (Mushroom Tyrosinase [6]; 24 hours incubation, even at the lower concentrations tested, FIG. 4): about 90%; IC50 (Mushroom Tyrosinase [6]; read-out: IC50 for tyrosinase inhibition after 24 hours incubation, 24 hours incubation): 2600 nM; pigmentation of treated cells observed microscopically (melanocytes): Reduced pigmentation"
